Values joined by “and” are separate entries in the source; they are usually repeats but may differ in a detail not shown here. Equal values may be shown once. Read-outs that look alike come from different tables or passages of the source.
Assays:
[1] = target: T1, SARS-CoV-2 NSP3 macrodomain (Mac1) (Severe acute respiratory syndrome coronavirus 2, UniProt P0DTD1); assay: biochemical; type: binding
[2] = target: T1, SARS-CoV-2 NSP3 macrodomain (Mac1); type: binding; details: for 1-BDC (PanDDA run, DMSO background map): event 1; for Total number of conformations: ligand conformations modeled in the crystal structure; for 2*(1-BDC) (%): occupancy estimate from PanDDA
[3] = HTRF binding curve, SARS-CoV-2 Mac1
[4] = PanDDA background density correction factor
[5] = TRUE = ligand-bound crystal structure obtained (PDB code given)
[6] = crystal soak concentration 20 mM
[7] = crystal soak concentration 20 mM, P43 crystals
[8] = refined crystallographic occupancy
[9] = site of Mac1 occupied in the X-ray crystal structure (Adenosine or Distal)
[10] = soak concentration 10 mM, P43 crystals
[11] = PanDDA background density correction, 1-BDC
[12] = SARS CoV-2 macrodomain HTRF assay, dose-response
[13] = crystal soak 10 mM, P43 crystal form
[14] = ligand-bound crystal structure obtained (TRUE)
[15] = site occupied in X-ray crystal structure
[16] = TRUE = crystal structure with ligand obtained
[17] = site of ligand in X-ray crystal structure
[18] = crystal soak concentration 10 mM
[19] = crystal soak concentration 10 mM, P43 crystals

Row | Structure (SMILES) | Hill slope [1, 3] | Occupancy difference (refined_occupancy - 2*(1-BDC)) [2] | 1-BDC [2, 4] | Total number of conformations [2] | 2*(1-BDC) (%) [2] [%] | Refined ligand occupancy (%) [2, 8] [%] | PanDDA run, overall: Hit [2, 13] | PanDDA run, DMSO background map: 1-BDC ([2]; crystal soak 10 mM) | PanDDA run, DMSO background map: Hit ([2]; crystal soak 10 mM) | X-ray crystal structure [2, 14] | Binding site [2, 15] | other results
1 | OCC(Cc1ccccc1)Nc1ncnc2[nH]ccc12 (centres unmarked) [AVI-313] | 1.2 | 14 | 0.18 | 2 | 36 | 50 |  |  |  |  |  | Hill slope ([1]; dose-response): 1.2; X-ray crystal structure [2, 5]: TRUE; Hit (PanDDA run, DMSO background map) [2, 6]: TRUE; 1-BDC (PanDDA run, DMSO background map) [2, 6]: 0.25; Hit (PanDDA run, overall) [2, 7]: TRUE; Modeling comment (PanDDA run, overall) [2, 7]: Duplicate, not modeled; Binding site [2, 9]: Adenosine; PanDDA run, DMSO background map: 1-BDC ([2]; soak concentration 10 mM): 0.18; PanDDA run, DMSO background map: Hit ([2]; soak concentration 10 mM): TRUE; PanDDA run, DMSO background map: Modeled ([2]; soak concentration 10 mM): TRUE; PanDDA run, overall: Hit [2, 10]: TRUE; PanDDA run, overall: Modeled [2, 10]: TRUE
2 | CC(CNC(=O)c1ccc2c(c1)CCC(=O)N2)C(=O)O (centres unmarked) [AVI-328] | 1.3 | 0 | 0.11 | 2 | 22 | 22 |  |  |  |  |  | inhibition at 200 µM ([1]; compound at 200 μM, mean of three to four technical replicates, read-out: % competition at 200 μM (preliminary HTRF screen)): 50%; Hill slope ([1]; dose-response): 1.3; X-ray crystal structure [2, 5]: TRUE; Binding site [2, 9]: Adenosine; PanDDA run, DMSO background map: 1-BDC ([2]; soak concentration 10 mM): 0.11 and 0.1; PanDDA run, DMSO background map: Hit ([2]; soak concentration 10 mM): TRUE; PanDDA run, DMSO background map: Modeled ([2]; soak concentration 10 mM): TRUE; PanDDA run, overall: Hit [2, 10]: TRUE; PanDDA run, overall: Modeled [2, 10]: TRUE; PanDDA run, overall: Modeling comment [2, 10]: Duplicate, not modeled
3 | CC1CC(C(=O)O)CN(C(=O)CSc2ccc(O)cc2)C1 (centres unmarked) [AVI-334] |  |  |  |  |  |  |  |  |  |  |  | Average % competition ([1]; single dose concentration 200 μM (TS-FrankenROCS series)): 25%; PanDDA run, DMSO background map: 1-BDC ([2]; soak concentration 10 mM): 0.07; PanDDA run, DMSO background map: Hit ([2]; soak concentration 10 mM): TRUE; PanDDA run, overall: Hit [2, 10]: TRUE; PanDDA run, overall: Modeling comment [2, 10]: Weak density, not modeled
4 | O=C1CCc2cc(C(=O)N3CC(C(=O)O)CCC34CCCC4)c(F)cc2N1 (centres unmarked) [AVI-338] | 1.5 |  |  |  | 14 |  |  |  |  |  |  | Hill slope ([1]; dose-response): 1.5; 1-BDC [2, 11]: 0.07; X-ray crystal structure [2, 5]: TRUE; Hit (PanDDA run, DMSO background map) [2, 6]: TRUE; Modeled (PanDDA run, DMSO background map) [2, 6]: TRUE; 1-BDC (PanDDA run, DMSO background map) [2, 6]: 0.07; Hit (PanDDA run, overall) [2, 7]: TRUE; Modeled (PanDDA run, overall) [2, 7]: TRUE; Refined ligand occupancy (%) ([2]; crystallographic refinement): 14%; Binding site [2, 9]: Adenosine
5 | OC[C@@H]1C[C@H](O)CN1c1ncnc2[nH]ccc12 [AVI-610] | 1.2 | 18 | 0.21 | 1 | 42 | 60 | TRUE | 0.34 and 0.31 and 0.21 and 0.26 | TRUE | TRUE | Adenosine | Hill slope [1, 12]: 1.2
6 | CC(C)(C)[C@@H]1CCN(c2ncnc3[nH]ccc23)[C@H](CO)C1 [AVI-3722] |  | 0 | 0.11 | 1 | 22 | 22 | TRUE | 0.11 | TRUE | TRUE | Adenosine | 
7 | CC1(C)CCC(CO)N(c2ncnc3[nH]ccc23)C1 (centres unmarked) [AVI-3726] |  | 0 | 0.17 | 3 | 34 | 34 | TRUE | 0.17 | TRUE | TRUE | Adenosine | 
8 | OCC1CC2(CCCCC2)CN1c1ncnc2[nH]ccc12 (centres unmarked) [AVI-3727] |  | 0 | 0.29 | 1 | 58 | 58 | TRUE | 0.29 | TRUE | TRUE | Adenosine | PanDDA run, overall: Modeling comment ([2]; crystal soak 10 mM): Distal site, weak density, not modeled
9 | OCC1CC2(CCC2)CN1c1ncnc2[nH]ccc12 (centres unmarked) [AVI-3728] |  | 0 | 0.24 | 2 | 48 | 48 | TRUE | 0.24 | TRUE | TRUE | Adenosine | PanDDA run, overall: Modeling comment ([2]; crystal soak 10 mM): Distal site, weak density, not modeled
10 | C[C@@H](O)[C@H](CO)Nc1ncnc2[nH]ccc12.O=C(O)C(F)(F)F [AVI-3730] |  | 0 | 0.14 | 1 | 28 | 28 | TRUE | 0.14 | TRUE |  |  | X-ray crystal structure [2, 16]: TRUE; Binding site [2, 17]: Adenosine
11 | Cc1nn(C)cc1C1CC[C@H](CO)N1c1ncnc2[nH]ccc12 (some centres unmarked) [AVI-3733] |  | 20 | 0.1 | 1 | 20 | 40 | TRUE | 0.1 | TRUE | TRUE | Adenosine | PanDDA run, overall: Modeled [2, 13]: TRUE
12 | OCC1CCC2(CCOCC2)CN1c1ncnc2[nH]ccc12 (centres unmarked) [AVI-4065] | 1.2 |  |  |  |  |  |  |  |  |  |  | Hill slope [1, 12]: 1.2
13 | OC1(CNc2ncnc3[nH]ccc23)CCC2(CC1)OCCO2 [AVI-4315] | 1.2 |  |  |  |  |  |  |  |  |  |  | Hill slope [1, 12]: 1.2
14 | CC(Nc1ncnc2[nH]ccc12)C1(O)CCCCC1 (centres unmarked) [AVI-4321] | 1.2 |  |  |  |  |  |  |  |  |  |  | Hill slope [1, 12]: 1.2
15 | Cc1c[nH]c2ncnc(NCC3(O)CCC(O)CC3)c12 (centres unmarked) [AVI-4329] |  |  |  |  | 18 |  |  |  |  | TRUE | Adenosine | 1-BDC [2, 11]: 0.09; Hit (PanDDA run, DMSO background map) [2, 18]: TRUE; Modeled (PanDDA run, DMSO background map) [2, 18]: TRUE; 1-BDC (PanDDA run, DMSO background map) [2, 18]: 0.09 and 0.11; Hit (PanDDA run, overall) [2, 19]: TRUE; Modeled (PanDDA run, overall) [2, 19]: TRUE; Modeling comment (PanDDA run, overall) [2, 19]: Duplicate, not modeled; Refined ligand occupancy (%) ([2]; crystallographic refinement): 30%
16 | CC(O)C(C)Nc1ncnc2[nH]ccc12 (centres unmarked) [AVI-5158] |  |  |  |  | 34 |  |  |  |  |  |  | 1-BDC [2, 11]: 0.17; X-ray crystal structure [2, 16]: TRUE; Refined ligand occupancy (%) ([2]; crystallographic refinement): 34%; Binding site [2, 17]: Adenosine
17 | CC(C)C1CCCN1c1ncnc2[nH]ccc12 (centres unmarked) [AVI-5216] |  |  |  |  | 26 |  |  |  |  | TRUE | Adenosine | 1-BDC [2, 11]: 0.13; Refined ligand occupancy (%) ([2]; crystallographic refinement): 40%
18 | CC(C)(C)C1CCCN1c1ncnc2[nH]ccc12 (centres unmarked) [AVI-6000] |  |  |  |  | 14 |  |  |  |  | TRUE | Adenosine | 1-BDC [2, 11]: 0.07; Refined ligand occupancy (%) ([2]; crystallographic refinement): 14%

From publication PMC12118597 (Science Advances, 2025)
